ChEMBL document CHEMBL1150317, “Discovery of aryl aminoquinazoline pyridones as potent, selective, and orally efficacious inhibitors of receptor tyrosine kinase c-Kit” (J Med Chem, 2008)

How the values were obtained:
[1] = target: Glycogen synthase kinase-3 beta (Homo sapiens) (UniProt P49841); experiment: Inhibition of GSK3-beta at 1 uM relative to control
[2] = Clearance in Sprague-Dawley rat at 1 mg/kg, iv; assay type: ADME, organism-based; parameters: dose 1 mg/kg, route intravenous; details: in vivo
[3] = Inhibition of casein kinase 1 at 1 uM relative to control
[4] = Inhibition of CAMK2 at 1 uM relative to control
[5] = Oral bioavailability in Sprague-Dawley rat at 10 mg/kg; assay type: ADME, organism-based; details: in vivo
[6] = target: Rho-associated protein kinase 2 (Homo sapiens) (UniProt O75116); experiment: Inhibition of ROCK2 at 1 uM relative to control
[7] = target: 5'-AMP-activated protein kinase subunit beta-1 (Homo sapiens) (UniProt Q9Y478); experiment: Inhibition of AMPK at 1 uM relative to control
[8] = target: Mitogen-activated protein kinase 1 (Homo sapiens) (UniProt P28482); experiment: Inhibition of MAPK1 at 1 uM relative to control
[9] = tested on: Plasma; experiment: Protein binding in po dosed C57BL/6 mouse plasma by ultracentrifugation; assay type: ADME, organism-based; details: in vivo
[10] = target: Vascular endothelial growth factor receptor 2 (Homo sapiens, UniProt P35968)
Description: Inhibition of KDR by TR-FRET assay

[11] = target: Mitogen-activated protein kinase 9 (Homo sapiens) (UniProt P45984); experiment: Inhibition of JNK2 at 1 uM relative to control
[12] = target: Dual specificity mitogen-activated protein kinase kinase 4 (Homo sapiens) (UniProt P45985); experiment: Inhibition of MKK4 at 1 uM relative to control
[13] = Inhibition of PKAalpha at 1 uM relative to control
[14] = target: Mitogen-activated protein kinase 14 (Homo sapiens) (UniProt Q16539); experiment: Inhibition of p38alpha at 1 uM relative to control
[15] = target: Dual specificity mitogen-activated protein kinase kinase 6 (Homo sapiens) (UniProt P52564); experiment: Inhibition of MKK6 at 1 uM relative to control
[16] = target: Cyclin-dependent kinase 1 (Homo sapiens) (UniProt P06493); experiment: Inhibition of CDK1 at 1 uM relative to control
[17] = target: Serine/threonine-protein kinase Chk2 (Homo sapiens) (UniProt O96017); experiment: Inhibition of CHK2 at 1 uM relative to control
[18] = target: Serine/threonine-protein kinase N2 (Homo sapiens) (UniProt Q16513); experiment: Inhibition of PRK2 at 1 uM relative to control
[19] = target: Serine/threonine-protein kinase Sgk1 (Homo sapiens) (UniProt O00141); experiment: Inhibition of SGK1 at 1 uM relative to control
[20] = target: Dual specificity mitogen-activated protein kinase kinase 1 (Homo sapiens) (UniProt Q02750); experiment: Inhibition of MEK1 at 1 uM relative to control
[21] = Volume of distribution at steady state in Sprague-Dawley rat at 1 mg/kg, iv; assay type: ADME, organism-based; parameters: dose 1 mg/kg, route intravenous; details: in vivo, read-out: Vdss
[22] = target: Protein kinase C gamma type (Homo sapiens) (UniProt P05129); experiment: Inhibition of PKCgamma at 1 uM relative to control
[23] = target: Platelet-derived growth factor receptor alpha (Homo sapiens, UniProt P16234)
Description: Inhibition of PDGFRalpha by TR-FRET assay

[24] = Half life in Sprague-Dawley rat at 10 mg/kg, po; assay type: ADME, organism-based; parameters: dose 10 mg/kg, route oral; details: in vivo
[25] = target: Ribosomal protein S6 kinase beta-1 (Homo sapiens) (UniProt P23443); experiment: Inhibition of P70S6 at 1 uM relative to control
[26] = target: Tyrosine-protein kinase ABL1 (Homo sapiens, UniProt P00519); experiment: Inhibition of Abl by TR-FRET assay
[27] = target: Ribosomal protein S6 kinase alpha-5 (Homo sapiens) (UniProt O75582); experiment: Inhibition of MSK1 at 1 uM relative to control
[28] = target: Cyclin-dependent kinase 2 (Homo sapiens) (UniProt P24941); experiment: Inhibition of CDK2 at 1 uM relative to control
[29] = target: RAC-alpha serine/threonine-protein kinase (Homo sapiens) (UniProt P31749); experiment: Inhibition of PKBalpha at 1 uM relative to control
[30] = target: Mitogen-activated protein kinase 11 (Homo sapiens) (UniProt Q15759); experiment: Inhibition of p38beta at 1 uM relative to control
[31] = target: Mitogen-activated protein kinase 10 (Homo sapiens) (UniProt P53779); experiment: Inhibition of JNK3 at 1 uM relative to control
[32] = tested on: Mus musculus; experiment: Effect on SCF-induced mast cell activation in po dosed C57BL/6 mouse assessed as decrease in histamine release in blood; assay type: functional, organism-based; details: C57BL/6, Blood
[33] = target: Proto-oncogene tyrosine-protein kinase Src (Homo sapiens, UniProt P12931)
Description: Inhibition of Src by TR-FRET assay

[34] = target: Mitogen-activated protein kinase 8 (Homo sapiens) (UniProt P45983); experiment: Inhibition of JNK1 at 1 uM relative to control
[35] = target: MAP kinase-activated protein kinase 2 (Homo sapiens) (UniProt P49137); experiment: Inhibition of MAPKAPK2 at 1 uM relative to control
[36] = target: Protein kinase C beta type (Homo sapiens) (UniProt P05771); experiment: Inhibition of PKCbeta at 1 uM relative to control
[37] = target: MAP kinase-activated protein kinase 5 (Homo sapiens) (UniProt Q8IW41); experiment: Inhibition of PRAK at 1 uM relative to control
[38] = target: Serine/threonine-protein kinase Chk1 (Homo sapiens) (UniProt O14757); experiment: Inhibition of CHK1 at 1 uM relative to control
[39] = target: Protein kinase C alpha type (Homo sapiens) (UniProt P17252); experiment: Inhibition of PKCalpha at 1 uM relative to control
[40] = target: Mitogen-activated protein kinase 1 (Homo sapiens) (UniProt P28482); experiment: Inhibition of MAPK2 at 1 uM relative to control
[41] = Cmax in Sprague-Dawley rat at 10 mg/kg, po; assay type: ADME, organism-based; parameters: dose 10 mg/kg, route oral; details: in vivo
[42] = target: Tyrosine-protein kinase ZAP-70 (Homo sapiens) (UniProt P43403); experiment: Inhibition of ZAP70 at 1 uM relative to control
[43] = Inhibition of casein kinase 2 at 1 uM relative to control
[44] = AUC (0 to t) in Sprague-Dawley rat at 10 mg/kg, po; assay type: ADME, organism-based; parameters: dose 10 mg/kg, route oral; details: plasma
[45] = target: Mitogen-activated protein kinase 13 (Homo sapiens) (UniProt O15264); experiment: Inhibition of p38delta at 1 uM relative to control
[46] = target: Calcium/calmodulin-dependent protein kinase type IV (Homo sapiens) (UniProt Q16566); experiment: Inhibition of CAMK4 at 1 uM relative to control
[47] = target: Tyrosine-protein kinase Lck (Homo sapiens, UniProt P06239)
Description: Inhibition of Lck by TR-FRET assay

[48] = Inhibition of p38 by TR-FRET assay
[49] = target: Dual specificity mitogen-activated protein kinase kinase 7 (Homo sapiens) (UniProt O14733); experiment: Inhibition of MKK7 at 1 uM relative to control
[50] = target: Mitogen-activated protein kinase 12 (Homo sapiens) (UniProt P53778); experiment: Inhibition of p38-gamma at 1 uM relative to control

Sequence of Mitogen-activated protein kinase 1 (Homo sapiens) (P28482 whole entry): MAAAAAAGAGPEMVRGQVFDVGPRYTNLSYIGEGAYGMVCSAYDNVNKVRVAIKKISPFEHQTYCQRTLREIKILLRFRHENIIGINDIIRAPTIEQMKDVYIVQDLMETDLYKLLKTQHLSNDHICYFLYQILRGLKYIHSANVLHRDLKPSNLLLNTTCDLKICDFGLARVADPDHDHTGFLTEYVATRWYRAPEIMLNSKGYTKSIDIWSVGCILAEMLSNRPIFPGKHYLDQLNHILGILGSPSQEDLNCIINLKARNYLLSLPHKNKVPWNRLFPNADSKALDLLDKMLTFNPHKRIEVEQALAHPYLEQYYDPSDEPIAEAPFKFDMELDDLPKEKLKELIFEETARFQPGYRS
Sequence of Mitogen-activated protein kinase 9 (Homo sapiens) (P45984 whole entry, looked up): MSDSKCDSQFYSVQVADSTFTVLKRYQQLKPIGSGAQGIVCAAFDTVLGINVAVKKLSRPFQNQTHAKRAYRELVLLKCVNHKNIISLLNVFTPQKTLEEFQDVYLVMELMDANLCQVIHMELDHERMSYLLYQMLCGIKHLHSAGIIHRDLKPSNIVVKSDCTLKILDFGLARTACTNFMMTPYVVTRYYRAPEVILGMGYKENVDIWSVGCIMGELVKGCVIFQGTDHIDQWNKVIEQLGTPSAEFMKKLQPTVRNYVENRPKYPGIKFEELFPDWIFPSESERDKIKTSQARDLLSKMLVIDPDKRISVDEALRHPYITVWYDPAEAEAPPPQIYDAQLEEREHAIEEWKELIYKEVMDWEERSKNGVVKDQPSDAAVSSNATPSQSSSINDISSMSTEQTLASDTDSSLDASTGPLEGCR
Sequence of Proto-oncogene tyrosine-protein kinase Src (P12931 2-536 limits assumed): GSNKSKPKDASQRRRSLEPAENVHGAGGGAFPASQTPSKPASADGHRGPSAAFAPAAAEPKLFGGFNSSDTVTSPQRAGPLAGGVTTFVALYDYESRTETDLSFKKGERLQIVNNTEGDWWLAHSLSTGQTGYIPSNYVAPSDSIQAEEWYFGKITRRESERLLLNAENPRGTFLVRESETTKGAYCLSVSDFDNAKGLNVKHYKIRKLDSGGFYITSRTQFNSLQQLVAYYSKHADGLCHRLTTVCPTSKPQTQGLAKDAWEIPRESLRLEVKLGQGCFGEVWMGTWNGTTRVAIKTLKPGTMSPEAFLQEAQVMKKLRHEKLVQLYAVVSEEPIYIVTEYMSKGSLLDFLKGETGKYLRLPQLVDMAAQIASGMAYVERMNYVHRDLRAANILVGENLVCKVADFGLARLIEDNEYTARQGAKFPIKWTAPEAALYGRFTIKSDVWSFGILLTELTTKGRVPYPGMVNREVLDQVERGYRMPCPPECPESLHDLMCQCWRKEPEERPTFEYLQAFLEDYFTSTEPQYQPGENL
Sequence of Dual specificity mitogen-activated protein kinase kinase 7 (Homo sapiens) (O14733 whole entry): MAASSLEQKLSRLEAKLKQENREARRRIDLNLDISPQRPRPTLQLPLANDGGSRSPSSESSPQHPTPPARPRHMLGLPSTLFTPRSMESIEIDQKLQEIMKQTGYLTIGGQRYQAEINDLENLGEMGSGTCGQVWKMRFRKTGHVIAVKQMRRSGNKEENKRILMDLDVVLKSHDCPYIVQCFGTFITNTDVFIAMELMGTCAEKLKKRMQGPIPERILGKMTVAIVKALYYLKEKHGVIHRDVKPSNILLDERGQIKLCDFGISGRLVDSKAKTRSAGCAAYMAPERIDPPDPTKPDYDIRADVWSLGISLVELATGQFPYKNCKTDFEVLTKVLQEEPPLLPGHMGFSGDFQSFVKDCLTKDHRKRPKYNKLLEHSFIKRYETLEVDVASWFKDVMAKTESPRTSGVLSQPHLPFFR
Sequence of Serine/threonine-protein kinase Chk2 (Homo sapiens) (O96017 whole entry): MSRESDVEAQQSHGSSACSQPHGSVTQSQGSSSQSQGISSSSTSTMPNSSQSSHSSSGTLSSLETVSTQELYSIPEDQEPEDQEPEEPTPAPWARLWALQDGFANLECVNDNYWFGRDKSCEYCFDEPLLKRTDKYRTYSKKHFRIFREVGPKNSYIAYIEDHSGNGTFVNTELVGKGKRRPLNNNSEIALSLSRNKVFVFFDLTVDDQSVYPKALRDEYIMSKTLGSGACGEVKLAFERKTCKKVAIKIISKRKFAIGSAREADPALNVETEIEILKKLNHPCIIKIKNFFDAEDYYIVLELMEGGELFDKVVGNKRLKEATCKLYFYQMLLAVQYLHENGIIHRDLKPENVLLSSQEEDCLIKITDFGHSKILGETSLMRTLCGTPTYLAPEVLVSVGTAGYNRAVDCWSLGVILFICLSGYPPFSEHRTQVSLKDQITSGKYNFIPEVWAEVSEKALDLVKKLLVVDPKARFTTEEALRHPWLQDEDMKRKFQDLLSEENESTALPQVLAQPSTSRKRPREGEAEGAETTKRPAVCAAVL
Sequence of MAP kinase-activated protein kinase 5 (Homo sapiens) (Q8IW41 whole entry): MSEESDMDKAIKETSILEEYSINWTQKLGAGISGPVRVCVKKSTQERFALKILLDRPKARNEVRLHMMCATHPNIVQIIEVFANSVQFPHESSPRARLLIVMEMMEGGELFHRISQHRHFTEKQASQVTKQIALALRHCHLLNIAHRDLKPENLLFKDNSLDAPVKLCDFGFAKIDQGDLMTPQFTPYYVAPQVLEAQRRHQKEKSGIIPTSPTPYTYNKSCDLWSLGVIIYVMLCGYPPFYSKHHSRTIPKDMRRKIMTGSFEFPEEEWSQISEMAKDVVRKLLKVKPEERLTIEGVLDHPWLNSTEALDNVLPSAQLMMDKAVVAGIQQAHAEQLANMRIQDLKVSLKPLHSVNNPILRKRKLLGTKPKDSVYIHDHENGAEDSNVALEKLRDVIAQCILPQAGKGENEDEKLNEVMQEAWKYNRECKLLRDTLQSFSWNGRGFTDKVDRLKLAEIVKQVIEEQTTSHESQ
Sequence of Tyrosine-protein kinase Lck (P06239 whole entry): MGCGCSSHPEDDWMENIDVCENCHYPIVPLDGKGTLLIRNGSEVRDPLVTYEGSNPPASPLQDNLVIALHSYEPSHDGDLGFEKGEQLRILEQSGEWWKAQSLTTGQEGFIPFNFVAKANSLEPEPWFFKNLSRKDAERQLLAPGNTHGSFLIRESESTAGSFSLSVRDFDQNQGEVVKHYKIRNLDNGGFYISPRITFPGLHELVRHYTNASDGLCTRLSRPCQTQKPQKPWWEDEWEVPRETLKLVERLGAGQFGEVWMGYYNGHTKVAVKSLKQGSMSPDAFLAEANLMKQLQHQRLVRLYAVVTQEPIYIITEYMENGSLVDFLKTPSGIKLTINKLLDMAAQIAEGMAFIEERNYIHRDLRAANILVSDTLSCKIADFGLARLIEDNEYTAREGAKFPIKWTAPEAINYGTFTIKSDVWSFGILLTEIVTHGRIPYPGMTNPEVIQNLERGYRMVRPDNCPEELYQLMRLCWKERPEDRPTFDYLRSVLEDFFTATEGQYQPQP
Sequence of Ribosomal protein S6 kinase alpha-5 (Homo sapiens) (O75582 whole entry, looked up): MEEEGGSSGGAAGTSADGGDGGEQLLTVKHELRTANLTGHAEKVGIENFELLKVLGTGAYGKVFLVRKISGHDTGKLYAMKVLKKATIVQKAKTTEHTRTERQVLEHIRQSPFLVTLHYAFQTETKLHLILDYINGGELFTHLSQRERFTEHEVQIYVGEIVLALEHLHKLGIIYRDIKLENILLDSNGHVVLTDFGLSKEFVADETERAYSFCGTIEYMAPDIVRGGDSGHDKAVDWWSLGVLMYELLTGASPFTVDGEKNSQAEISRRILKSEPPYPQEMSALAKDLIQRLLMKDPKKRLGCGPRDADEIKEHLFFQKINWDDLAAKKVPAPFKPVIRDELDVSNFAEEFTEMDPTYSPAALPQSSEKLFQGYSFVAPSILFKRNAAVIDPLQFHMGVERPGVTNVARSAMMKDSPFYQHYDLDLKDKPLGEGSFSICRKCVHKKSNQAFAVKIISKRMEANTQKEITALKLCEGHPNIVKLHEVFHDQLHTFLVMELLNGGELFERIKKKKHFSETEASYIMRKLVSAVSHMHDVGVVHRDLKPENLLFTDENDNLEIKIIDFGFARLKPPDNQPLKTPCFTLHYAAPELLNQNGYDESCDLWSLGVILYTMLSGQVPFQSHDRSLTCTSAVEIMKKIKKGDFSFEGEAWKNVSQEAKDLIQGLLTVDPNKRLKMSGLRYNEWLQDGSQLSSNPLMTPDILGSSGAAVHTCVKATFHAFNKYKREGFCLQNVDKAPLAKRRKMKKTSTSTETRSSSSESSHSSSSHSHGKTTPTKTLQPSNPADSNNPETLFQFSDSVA

Cc1ccn(-c2cccc(C(F)(F)F)c2)c(=O)c1-c1ccc2nc(N)ncc2c1
> 5000 nM: IC50 [10]
25%: bioavailability [5]
4.12 L/kg: Vd [21]
1700 nM: IC50 [47]
1.83 h: half-life [24]
1040 ng·h/mL: AUC(0-t) [44]
6100 nM: IC50 [48]
> 50%: inhibition [1] | inhibition [3] | inhibition [6] | inhibition [7] | inhibition [8] | inhibition [11] | inhibition [12] | inhibition [13] | inhibition [14] | inhibition [15] | inhibition [16] | inhibition [17] | inhibition [18] | inhibition [19] | inhibition [20] | inhibition [22] | inhibition [25] | inhibition [27] | inhibition [29] | inhibition [30] | inhibition [31] | inhibition [34] | inhibition [35] | inhibition [36] | inhibition [37] | inhibition [38] | inhibition [39] | inhibition [40] | inhibition [42] | inhibition [43] | inhibition [45] | inhibition [46] | inhibition [49] | inhibition [50]
9 nM: IC50 [23]
1400 nM: IC50 [26]
4.7 mg/kg: ED50 ([32]; po)
41 mL/min/kg: clearance [2]
87.85%: Activity [9]
860 nM: IC50 [33]
12.6 nM: EC50 [32]
50%: inhibition [4] | inhibition [28]
253 ng/mL: Cmax [41]
